“And” between values parts separate entries of the source, which are not always exact repeats. Identical values can stand only once.
Legend:
[1] = biological target: T1, Adenosine A2A receptor (Homo sapiens, UniProt P29274); assay: cAMP assay in 293A cells stably expressing the adenosine A2A receptor (CGS21680 stimulation, HTRF); format: cell-based; parameters: expressed in transfected cells; host or cells: 293A cells (Invitrogen, Cat# R705-07) infected with A2A-expressing lentivirus (custom packaged by Biosettia), puromycin selected; conditions: 293A-A2AR cells, 0.1% BSA, values separated by / are repeat determinations
T1 sequence (P29274 whole entry): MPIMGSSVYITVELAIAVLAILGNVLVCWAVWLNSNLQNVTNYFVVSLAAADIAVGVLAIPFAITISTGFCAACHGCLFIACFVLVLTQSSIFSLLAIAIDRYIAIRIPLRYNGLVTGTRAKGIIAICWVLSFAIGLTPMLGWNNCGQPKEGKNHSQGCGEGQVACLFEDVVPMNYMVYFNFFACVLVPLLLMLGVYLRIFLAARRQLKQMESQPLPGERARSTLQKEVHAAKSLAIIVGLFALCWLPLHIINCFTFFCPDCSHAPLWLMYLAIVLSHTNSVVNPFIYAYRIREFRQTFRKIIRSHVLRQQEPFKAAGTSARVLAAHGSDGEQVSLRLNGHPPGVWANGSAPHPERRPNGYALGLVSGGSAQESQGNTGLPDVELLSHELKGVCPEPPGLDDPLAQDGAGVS

[2] = biological target: T1, Adenosine A2A receptor; assay: Adenosine A2A receptor competitive binding assay (Tag-lite HTRF); conditions: Tag-lite adenosine A2A receptor ligand binding, 2 h room temperature; values separated by / are repeat determinations
Procedure, shortened: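 Compound displacement of a red fluorescent antagonist tracer (added at 60 nM stock) from donor-labelled, pre-transfected human A2A cells was read by HTRF after 2 h at room temperature; compound dilutions contained 0.6% DMSO.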

[3] = 8 nM CGS, read-out: cAMP (nM) 0.1% BSA, 8 nM CGS
[4] = 1 uM CGS, read-out: cAMP (nM) 0.1% BSA, 1 uM CGS

Row | IC50 [1, 3] | IC50 [2] | IC50 [1, 4] [nM] | SMILES
1 | 21 nM and 5.9 nM and 8.4 nM | 5.6 nM | – | Cc1cc(-c2c(OCC(O)CCO)nc(N)nc2-c2ccc(F)cc2)cc(C(F)F)n1 (stereo not drawn) [Example 81, 4-((2-amino-5-(2-(difluoromethyl)-6-methylpyridin-4-yl)-6-(4-fluorophenyl)pyrimidin-4-yl)oxy)butane-1,3-diol]
2 | 1.6 nM | 16 nM | 936 | Cc1cc(-c2c(OCCNc3ccccc3)nc(N)nc2-c2ccc(F)cc2)cc(C(F)F)n1 [Example 82, 5-(2-(difluoromethyl)-6-methylpyridin-4-yl)-4-(4-fluorophenyl)-6-(2-(phenylamino)ethoxy)pyrimidin-2-amine]
3 | 2.9 nM and 7.3 nM and 22 nM | 13 nM | 1610 | Cc1cc(-c2c(OC[C@@H](O)CO)nc(N)nc2-c2ccc(F)cc2)cc(C(F)F)n1 [Example 83, (S)-3-((2-amino-5-(2-(difluoromethyl)-6-methylpyridin-4-yl)-6-(4-fluorophenyl)pyrimidin-4-yl)oxy)propane-1,2-diol]
4 | 8.7 nM | 17 nM | – | Cc1cc(-c2c(OCC(=O)NCc3ccccc3)nc(N)nc2-c2ccc(F)cc2)cc(C(F)F)n1 [Example 84]
5 | 2 nM and 9.1 nM and 10.5 nM | 13 nM | 1070 | Cc1cc(-c2c(OC[C@H](O)CO)nc(N)nc2-c2ccc(F)cc2)cc(C(F)F)n1 [Example 86, (R)-3-((2-amino-5-(2-(difluoromethyl)-6-methylpyridin-4-yl)-6-(4-fluorophenyl)pyrimidin-4-yl)oxy)propane-1,2-diol]
6 | 2.2 nM | 18 nM | – | Cc1cc(-c2c(OCCN(C)c3ccccc3)nc(N)nc2-c2ccc(F)cc2)cc(C(F)F)n1 [Example 87, 5-(2-(difluoromethyl)-6-methylpyridin-4-yl)-4-(4-fluorophenyl)-6-(2-(methyl(phenyl)amino)ethoxy)pyrimidin-2-amine]
7 | 8.3 nM | 22 nM | 4260 | Cc1cc(-c2c(OCC(=O)N(CCO)CCO)nc(N)nc2-c2ccc(F)cc2)cc(C(F)F)n1 [Example 88]
8 | 2.2 nM | 6.1 nM | – | CCN(CCO)C(=O)COc1nc(N)nc(-c2ccc(F)cc2)c1-c1cc(C)nc(C(F)F)c1 [Example 89, 2-((2-amino-5-(2-(difluoromethyl)-6-methylpyridin-4-yl)-6-(4-fluorophenyl)pyrimidin-4-yl)oxy)-N-ethyl-N-(2-hydroxyethyl)acetamide]
9 | 6.8 nM | 23 nM | – | CCN(C(=O)COc1nc(N)nc(-c2ccc(F)cc2)c1-c1cc(C)nc(C(F)F)c1)c1ccccc1 [Example 90]
10 | 6.4 nM | 48 nM | – | Cc1cc(-c2c(OCC(=O)Nc3ccccc3)nc(N)nc2-c2ccc(F)cc2)cc(C(F)F)n1 [Example 92, 2-((2-amino-5-(2-(difluoromethyl)-6-methylpyridin-4-yl)-6-(4-fluorophenyl)pyrimidin-4-yl)oxy)-N-phenylacetamide]
11 | 0.39 nM and 2.9 nM | 2.4 nM | – | Cc1cc(-c2c(OCCNc3ccccn3)nc(N)nc2-c2ccc(F)cc2)cc(C(F)F)n1 [Example 94, 5-(2-(difluoromethyl)-6-methylpyridin-4-yl)-4-(4-fluorophenyl)-6-(2-(pyridin-2-ylamino)ethoxy)pyrimidin-2-amine]
12 | 4.5 nM | 14 nM | 3310 | Cc1cc(-c2c(OCc3nc(C)n[nH]3)nc(N)nc2-c2ccc(F)cc2)cc(C(F)F)n1 [Example 97, 5-(2-(difluoromethyl)-6-methylpyridin-4-yl)-4-(4-fluorophenyl)-6-((3-methyl-1H-1,2,4-triazol-5-yl)methoxy)pyrimidin-2-amine]
13 | 1.2 nM | 5.9 nM | – | Cc1cc(-c2c(OCC(=O)N(C)c3ccccc3)nc(N)nc2-c2ccc(F)cc2)cc(C(F)F)n1 [Example 98, 2-((2-amino-5-(2-(difluoromethyl)-6-methylpyridin-4-yl)-6-(4-fluorophenyl)pyrimidin-4-yl)oxy)-N-methyl-N-phenylacetamide]
14 | – | 0.83 nM | 10 | Cc1cc(-c2c(OCC3(F)CCOCC3)nc(N)nc2-c2ccc(F)cc2)cc(C(F)F)n1 [Example 102, 5-(2-(difluoromethyl)-6-methylpyridin-4-yl)-4-(4-fluorophenyl)-6-((4-fluorotetrahydro-2H-pyran-4-yl)methoxy)pyrimidin-2-amine]
15 | 11 nM | 47 nM | – | COC(=O)NCc1nc(N)nc(-c2ccc(F)cc2)c1-c1cc(C)nc(C(F)F)c1 [Example 103, methyl((2-amino-5-(2-(difluoromethyl)-6-methylpyridin-4-yl)-6-(4-fluorophenyl)pyrimidin-4-yl)methyl)carbamate]
16 | 0.44 nM and 0.38 nM | 0.17 nM and 1 nM | 10 | CCn1ccnc1COc1nc(N)nc(-c2ccc(F)cc2)c1-c1cc(C)nc(C(F)F)c1 [Example 105, 5-(2-(difluoromethyl)-6-methylpyridin-4-yl)-4-((1-ethyl-1H-imidazol-2-yl)methoxy)-6-(4-fluorophenyl)pyrimidin-2-amine]
17 | 43 nM | 38 nM | – | COC(=O)N1CCC(COc2nc(N)nc(-c3ccc(F)cc3)c2-c2cc(C)nc(C(F)F)c2)CC1 [Example 106, methyl 4-(((2-amino-5-(2-(difluoromethyl)-6-methylpyridin-4-yl)-6-(4-fluorophenyl)pyrimidin-4-yl)oxy)methyl)piperidine-1-carboxylate]
18 | 3.1 nM | 6.7 nM | – | Cc1cc(-c2c(OCCNS(N)(=O)=O)nc(N)nc2-c2ccccc2)cc(C(F)(F)F)n1 [Example 112]
19 | 16 nM and 7.5 nM | 8.9 nM | – | CNC(=O)NCCOc1nc(N)nc(-c2ccc(F)cc2)c1-c1cc(C)nc(C(F)F)c1 [Example 113, 1-(2-((2-amino-5-(2-(difluoromethyl)-6-methylpyridin-4-yl)-6-(4-fluorophenyl)pyrimidin-4-yl)oxy)ethyl)-3-methylurea]
20 | 6.2 nM and 4.2 nM | 7.7 nM | – | Cc1cc(-c2c(OCC3COCCO3)nc(N)nc2-c2ccc(F)cc2)cc(C(F)F)n1 (stereo not drawn) [Example 114]
21 | 9.9 nM | 19 nM | 820 | CNS(=O)(=O)NCCOc1nc(N)nc(-c2ccc(F)cc2)c1-c1cc(C)nc(C(F)F)c1 [Example 115]
22 | 4.7 nM and 3.2 nM | 7.3 nM | – | COC(=O)NCCOc1nc(N)nc(-c2ccc(F)cc2)c1-c1cc(C)nc(C(F)F)c1 [Example 116, methyl(2-((2-amino-5-(2-(difluoromethyl)-6-methylpyridin-4-yl)-6-(4-fluorophenyl)pyrimidin-4-yl)oxy)ethyl)carbamate]
23 | 27 nM | 39.4 nM | – | CCN(C(=O)COc1nc(N)nc(-c2ccc(F)cc2)c1-c1cc(C)nc(C(F)F)c1)c1ccccn1 [Example 117, 2-((2-amino-5-(2-(difluoromethyl)-6-methylpyridin-4-yl)-6-(4-fluorophenyl)pyrimidin-4-yl)oxy)-N-ethyl-N-(pyridin-2-yl)acetamide]
24 | 18 nM | 28.7 nM | – | CCN(C(=O)COc1nc(N)nc(-c2ccc(F)cc2)c1-c1cc(C)nc(C(F)F)c1)C1COC1 [Example 118, 2-((2-amino-5-(2-(difluoromethyl)-6-methylpyridin-4-yl)-6-(4-fluorophenyl)pyrimidin-4-yl)oxy)-N-ethyl-N-(oxetan-3-yl)acetamide]
25 | 5.8 nM and 5.4 nM | 16.8 nM | – | COC(=O)NCCOc1nc(N)nc(-c2ccccc2)c1-c1cc(C)nc(C(F)(F)F)c1 [Example 119, methyl(2-((2-amino-5-(2-methyl-6-(trifluoromethyl)pyridin-4-yl)-6-phenylpyrimidin-4-yl)oxy)ethyl)carbamate]
26 | 13 nM and 8.2 nM | 8.8 nM | – | CNC(=O)NCCOc1nc(N)nc(-c2ccccc2)c1-c1cc(C)nc(C(F)(F)F)c1 [Example 120, 1-(2-((2-amino-5-(2-methyl-6-(trifluoromethyl)pyridin-4-yl)-6-phenylpyrimidin-4-yl)oxy)ethyl)-3-methylurea]
27 | 0.87 nM and 0.67 nM | 1.2 nM | – | CCNC(=O)N(CC)CCOc1nc(N)nc(-c2ccc(F)cc2)c1-c1cc(C)nc(C(F)F)c1 [Example 123, 1-(2-((2-amino-5-(2-(difluoromethyl)-6-methylpyridin-4-yl)-6-(4-fluorophenyl)pyrimidin-4-yl)oxy)ethyl)-1,3-diethylurea]
28 | 1.1 nM and 0.5 nM | 1.7 nM | 535 | CCN(CCOc1nc(N)nc(-c2ccc(F)cc2)c1-c1cc(C)nc(C(F)F)c1)C(=O)NC [Example 124, 1-(2-((2-amino-5-(2-(difluoromethyl)-6-methylpyridin-4-yl)-6-(4-fluorophenyl)pyrimidin-4-yl)oxy)ethyl)-1-ethyl-3-methylurea]
29 | 8.7 nM | 18.1 nM | 1890 | Cc1cc(-c2c(OCC3(CO)CCOCC3)nc(N)nc2-c2ccc(F)cc2)cc(C(F)F)n1 [Example 125, (4-(((2-amino-5-(2-(difluoromethyl)-6-methylpyridin-4-yl)-6-(4-fluorophenyl)pyrimidin-4-yl)oxy)methyl)tetrahydro-2H-pyran-4-yl)methanol]
30 | 40 nM | 92 nM | – | CCc1nn[nH]c1COc1nc(N)nc(-c2ccc(F)cc2)c1-c1cc(C)nc(C(F)F)c1 [Example 137, 5-(2-(difluoromethyl)-6-methylpyridin-4-yl)-4-((4-ethyl-1H-1,2,3-triazol-5-yl)methoxy)-6-(4-fluorophenyl)pyrimidin-2-amine]
